Source: PMC5484146 (Journal of the American Chemical Society, 2016)
Each block holds one compound with its values, some of them ahead of it.

What was measured:
[1] = TEM / optical observation of assemblies and aggregates; format: physicochemical
[2] = Hydrogelation test; format: physicochemical; conditions: 4 mM solution of 1, pH changed to pH 6.4, Figure S2
[3] = 1 (800 µM), peaks disappear at 4.0 wt% Tw-80

Compound: CN[C@H](CC(C)C)C(=O)N[C@H]1C(=O)N[C@@H](CC(N)=O)C(=O)N[C@H]2C(=O)N[C@H]3C(=O)N[C@H](C(=O)N[C@H](C(=O)O)c4cc(O)cc(O)c4-c4cc3ccc4O)[C@H](O)c3ccc(c(Cl)c3)Oc3cc2cc(c3O)Oc2ccc(cc2Cl)[C@H]1O [vancomycin aglycon, reference compound]
aggregate formation in EISA of 1P when it replaces 2 ([1]; TEM, Figure S20, short fibers were observed): no aggregates were observed

appearance after addition of five equivalents of 2 ([1]; 500 µM suspension of 1, 24–48h after the addition, Figure S5): opaque colloidal precipitate
morphology on direct addition in water ([1]; 1 500 µM, pH 7.4, TEM): suspension consisting of nanoribbons
hydrogel formation [2]: self-supporting gel
binding with 2 by ITC, in words (ITC in PBS, no surfactant, 1 and 3 as assemblies): too weak to be measured by ITC
size of the assemblies (DLS peaks) [3]: > 100 nm
Compound: Nap-FFYGGaa [compound 1]
ITC heating profile on titration with 2, in words (ITC, 1.0 wt% of Tw-80, Figure 2C): release of heat

appearance after addition of one equivalent of 2, without ALP ([1]; 1P 500 µM, 1 eq. 2, pH 7.4, TEM aggregates largely unstructured): colloidal suspension
morphology after simultaneous addition of 2 and ALP ([1]; 1P 500 µM, 2 (1 eq.), ALP 1.25 U/mL, pH 7.4, TEM, precipitates over time): large aggregates
morphology after ALP dephosphorylation in the absence of 2 ([1]; 1P 500 µM, ALP 1.25 U/mL, pH 7.4, TEM): long nanofibers
Compound: Nap-FFpYGGaa [1P]
